Test results as given in US20220378707A1, “1-(((2S,3S,4S)-3-ETHYL-4-FLUORO-5-OXOPYRROLIDIN-2-YL)METHOXY)-7-METHOXYISOQUINOLINE-6-CARBOXAMIDE COMBINATIONS AND ORAL DOSAGE FORMS” (Pfizer Inc., priority 2019, published 2022).

Test system: HUVEC and M1 macrophages+Zymosan (TLR2 ligand)
Test: BioMAP IMphg system
Format: cell-based, human
Conditions: CD14+ derived macrophages; PF-06650833 19-500 nM
Excerpt: The BioMAP systems consist of human primary cell-based systems designed to model different aspects of the human body in an in vitro format. The 12 systems tested characterized the test compounds across a broad set of systems modeling various human disease states. BioMAP systems were constructed with one or more primary cell types from healthy human donors, with stimuli (such as cytokines or growth factors) added to capture relevant signaling networks that naturally occur in human tissue or pathological conditions. […] Soluble factors from supernatants were quantified using either HTRF® detection, bead-based multiplex immunoassay or capture ELISA. Overt adverse effects of test agents on cell proliferation and viability (cytotoxicity) were detected by sulforhodamine B (SRB) staining, for adherent cells, and alamarBlue® reduction for cells in suspension. […] Each tested compound generated a signature BioMAP profile that was created from the changes in protein biomarker readouts within individual system environments. […] Each readout was measured quantitatively by immune-based methods that detected protein (e.g., ELISA) or functional assays that measured proliferation and viability. BioMAP readouts were diverse and included cell surface receptors, cytokines, chemokines, matrix molecules and enzymes. […]

CC[C@@H]1[C@H](F)C(=O)N[C@@H]1COc1nccc2cc(C(N)=O)c(OC)cc12 [PF-06650833, 1-(((2S,3S,4S)-3-Ethyl-4-fluoro-5-oxopyrrolidin-2-yl)methoxy)-7-methoxyisoquinoline-6-carboxamide]
Activity in the IMphg system: no activity was found
